The source of these data is paper PMC3310380 (Journal of Biomolecular Screening, 2010).

Data set [1] has as its system EBV genome copy number in Raji Burkitt lymphoma cells. Put plainly: EBV genome maintenance assay in Raji cells. Format: cell-based, Epstein-Barr virus. Particulars: six days, 50 μM.
The target in data set [2] is EBNA1 DBD (Epstein-Barr virus, UniProt P03211 459-607). Put plainly: EMSA.
Chain of EBNA1 DBD (P03211 459-607): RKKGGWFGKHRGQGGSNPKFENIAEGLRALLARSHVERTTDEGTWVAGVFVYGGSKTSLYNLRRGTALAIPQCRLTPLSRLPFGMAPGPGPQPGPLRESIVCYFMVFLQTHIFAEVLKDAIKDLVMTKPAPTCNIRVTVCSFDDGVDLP

Turning to `NC(=O)NO` [HU, hydroxyurea], the “EBV DNA copy number, of its original content relative to cellular actin” value in data set [1] is ~ 48%.

B1: Probe A (dsDNA)
DNA 1: GGGTAGCATATGCTACCC
DNA 2: GGGTAGCATATGCTACCC
On to B1, for which, in data set [2], the binding result is on record as “binds”.
